From ChEMBL document CHEMBL1649249, “Antifungal activity of micafungin in serum” (Antimicrob Agents Chemother, 2009)
*1 amine or outer side, *2 acyl side, *3 side chain or, on linkers, in order; H or OH if unused. Where a SMILES comes first, the peptide text is derived from it. Bridges are numbered along the chain shown (N, C = ends). [ ]: non-standard residue; d: D form. The star is where a group is joined. hTyr(3S-OH,4S-OH,3'-OSO3H) = N[C@H](C(=O)O)[C@H](O)[C@@H](O)c1ccc(O)c(OS(=O)(=O)O)c1; Orn(4R-OH,5R-OH) = O=C([C@H](C[C@@H](O)[C@@H](O)N[*:3])N[*:1])[*:2]; Pro(3S-OH,4S-Me) = C[C@H]1CN[C@H](C(=O)O)[C@H]1O; X1 = CCCCCOc1ccc(-c2cc(-c3ccc(C(=O)*)cc3)no2)cc1; Gln(3R-OH) = NC(=O)C[C@@H](O)[C@H](N)C(=O)O; Hyp = O=C(O)[C@@H]1C[C@@H](O)CN1

Assays:
[1] = system: Candida albicans; assay: Antifungal activity against Candida albicans FP633 collected from peak serum sample on day 15 from patient with acute lymphoblastic leukemia at 1.2 mg/kg by disk diffusion method in presence of human serum; type: functional
[2] = Ratio of MIC for Candida albicans FP633 collected from peak serum sample on day 15 from patient with acute lymphoblastic leukemia at 1.2 mg/kg to Cmax for patient with acute lymphoblastic leukemia at 1.2 mg/kg; type: functional
[3] = Cmax in patient with acute myeloid leukemia infected with Candida albicans FP633 at 1.1 mg/kg administered once daily after 8 days by HPLC; type: ADME, organism-based; design: dose 1.1 mg/kg; conditions: human, in vivo
[4] = Ratio of MIC for Candida albicans FP633 collected from trough serum sample on day 8 from patient with acute myeloid leukemia at 1.1 mg/kg to Cmax for patient with acute myeloid leukemia at 1.1 mg/kg; type: functional
[5] = system: Candida albicans; assay: Antifungal activity against Candida albicans FP633 collected from peak serum sample on day 12 patient with malignant lymphoma at 2.6 mg/kg by disk diffusion method in presence of human serum; type: functional
[6] = system: Candida albicans; assay: Antimicrobial activity against Candida albicans FP633 in presence of heat inactivated mouse serum; type: functional
[7] = system: Candida albicans; assay: Antifungal activity against Candida albicans FP633 collected from trough serum sample on day 15 from patient with acute myeloid leukemia at 1.1 mg/kg by disk diffusion method; type: functional
[8] = system: Candida albicans; assay: Antifungal activity against Candida albicans FP633 collected from peak serum sample on day 15 from patient with acute myeloid leukemia at 1.1 mg/kg by disk diffusion method; type: functional
[9] = Ratio of MIC for Candida albicans FP633 collected from trough serum sample on day 15 from patient with acute lymphoblastic leukemia at 1.2 mg/kg in presence of human serum to Cmax for patient with acute lymphoblastic leukemia at 1.2 mg/kg; type: functional
[10] = system: Candida albicans; assay: Antifungal activity against Candida albicans FP633 collected from trough serum sample on day 15 from patient with acute lymphoblastic leukemia at 1.2 mg/kg by disk diffusion method; type: functional
[11] = Cmax in patient with malignant lymphoma infected with Candida albicans FP633 at 2.6 mg/kg administered once daily after 12 days by HPLC; type: ADME, organism-based; design: dose 2.6 mg/kg; conditions: human, in vivo
[12] = Ratio of MIC for Candida albicans FP633 collected from peak serum sample on day 43 from patient with myelodysplastic syndrome at 3.9 mg/kg in presence of human serum to Cmax for patient with myelodysplastic syndrome at 3.9 mg/kg; type: functional
[13] = Ratio of MIC for Candida albicans FP633 collected from peak serum sample on day 17 from patient with acute lymphoblastic leukemia at 1.2 mg/kg to Cmax for patient with acute lymphoblastic leukemia at 1.2 mg/kg; type: functional
[14] = Ratio of MIC for Candida albicans FP633 collected from peak serum sample on day 43 from patient with malignant lymphoma at 4.8 mg/kg to Cmax for patient with malignant lymphoma at 4.8 mg/kg; type: functional
[15] = system: Serum; assay: Protein binding in human serum; type: ADME, cell-free
[16] = system: Candida albicans; assay: Antifungal activity against Candida albicans FP633 collected from peak serum sample on day 8 from patient with acute myeloid leukemia at 1.1 mg/kg by disk diffusion method; type: functional
[17] = Ratio of MIC for Candida albicans FP633 collected from peak serum sample on day 15 from patient with acute lymphoblastic leukemia at 1.2 mg/kg in presence of human serum to Cmax for patient with acute lymphoblastic leukemia at 1.2 mg/kg; type: functional
[18] = Cmax in patient with malignant lymphoma infected with Candida albicans FP633 at 3.9 mg/kg administered once daily after 10 days by HPLC; type: ADME, organism-based; design: dose 3.9 mg/kg; conditions: human, in vivo
[19] = Ratio of MIC for Candida albicans FP633 collected from peak serum sample on day 15 from patient with acute myeloid leukemia at 1.1 mg/kg in presence of human serum to Cmax for patient with acute myeloid leukemia at 1.1 mg/kg; type: functional
[20] = system: Candida albicans; assay: Antifungal activity against Candida albicans FP633 collected from peak serum sample on day 43 patient with malignant lymphoma at 4.8 mg/kg by disk diffusion method in presence of human serum; type: functional
[21] = system: Candida albicans; assay: Antifungal activity against Candida albicans FP633 collected from peak serum sample on day 8 from patient with acute myeloid leukemia at 1.1 mg/kg by disk diffusion method in presence of human serum; type: functional
[22] = Ratio of MIC for Candida albicans FP633 collected from peak serum sample on day 43 from patient with myelodysplastic syndrome at 3.9 mg/kg to Cmax for patient with myelodysplastic syndrome at 3.9 mg/kg; type: functional
[23] = system: Candida albicans; assay: Antifungal activity against Candida albicans FP633 collected from trough serum sample on day 8 from patient with acute myeloid leukemia at 1.1 mg/kg by disk diffusion method in presence of human serum; type: functional
[24] = Cmax in patient with acute lymphoblastic leukemia infected with Candida albicans FP633 at 1.2 mg/kg administered once daily after 15 days by HPLC; type: ADME, organism-based; design: dose 1.2 mg/kg; conditions: human, in vivo
[25] = Ratio of MIC for Candida albicans FP633 collected from peak serum sample on day 12 from patient with malignant lymphoma at 2.6 mg/kg in presence of human serum to Cmax for patient with malignant lymphoma at 2.6 mg/kg; type: functional
[26] = system: Candida albicans; assay: Antifungal activity against Candida albicans FP633 collected from peak serum sample on day 15 from patient with acute lymphoblastic leukemia at 1.2 mg/kg by disk diffusion method; type: functional
[27] = system: Candida albicans; assay: Antifungal activity against Candida albicans FP633 collected from peak serum sample on day 43 patient with malignant lymphoma at 4.8 mg/kg by disk diffusion method; type: functional
[28] = system: Candida albicans; assay: Antifungal activity against Candida albicans FP633 collected from trough serum sample on day 8 from patient with acute myeloid leukemia at 1.1 mg/kg by disk diffusion method; type: functional
[29] = Ratio of MIC for Candida albicans FP633 collected from peak serum sample on day 8 from patient with acute myeloid leukemia at 1.1 mg/kg in presence of human serum to Cmax for patient with acute myeloid leukemia at 1.1 mg/kg; type: functional
[30] = Ratio of MIC for Candida albicans FP633 collected from trough serum sample on day 15 from patient with acute myeloid leukemia at 1.1 mg/kg to Cmax for patient with acute myeloid leukemia at 1.1 mg/kg; type: functional
[31] = Cmax in patient with myelodysplastic syndrome infected with Candida albicans FP633 at 1.4 mg/kg administered once daily after 45 days by HPLC; type: ADME, organism-based; design: dose 1.4 mg/kg; conditions: human, in vivo
[32] = system: Candida albicans; assay: Antifungal activity against Candida albicans FP633 collected from peak serum sample on day 15 from patient with acute myeloid leukemia at 1.1 mg/kg by disk diffusion method in presence of human serum; type: functional
[33] = Ratio of MIC for Candida albicans FP633 collected from trough serum sample on day 8 from patient with acute myeloid leukemia at 1.1 mg/kg in presence of human serum to Cmax for patient with acute myeloid leukemia at 1.1 mg/kg; type: functional
[34] = Cmax in patient with malignant lymphoma infected with Candida albicans FP633 at 4.8 mg/kg administered once daily after 43 days by HPLC; type: ADME, organism-based; design: dose 4.8 mg/kg; conditions: human, in vivo
[35] = Ratio of MIC for Candida albicans FP633 collected from trough serum sample on day 15 from patient with acute myeloid leukemia at 1.1 mg/kg in presence of human serum to Cmax for patient with acute myeloid leukemia at 1.1 mg/kg; type: functional
[36] = Ratio of MIC for Candida albicans FP633 collected from peak serum sample on day 15 from patient with acute myeloid leukemia at 1.1 mg/kg to Cmax for patient with acute myeloid leukemia at 1.1 mg/kg; type: functional
[37] = system: Candida albicans; assay: Antifungal activity against Candida albicans FP633 collected from peak serum sample on day 17 from patient with acute lymphoblastic leukemia at 1.2 mg/kg by disk diffusion method in presence of human serum; type: functional
[38] = system: Candida albicans; assay: Antifungal activity against Candida albicans FP633 collected from trough serum sample on day 15 from patient with acute lymphoblastic leukemia at 1.2 mg/kg by disk diffusion method in presence of human serum; type: functional
[39] = Ratio of MIC for Candida albicans FP633 collected from trough serum sample on day 15 from patient with acute lymphoblastic leukemia at 1.2 mg/kg to Cmax for patient with acute lymphoblastic leukemia at 1.2 mg/kg; type: functional
[40] = system: Candida albicans; assay: Antifungal activity against Candida albicans FP633 collected from peak serum sample on day 43 from patient with myelodysplastic syndrome at 1.4 mg/kg by disk diffusion method; type: functional
[41] = system: Candida albicans; assay: Antifungal activity against Candida albicans FP633 collected from trough serum sample on day 15 from patient with acute myeloid leukemia at 1.1 mg/kg by disk diffusion method in presence of human serum; type: functional
[42] = Cmax in patient with acute lymphoblastic leukemia infected with Candida albicans FP633 at 1.2 mg/kg administered once daily after 17 days by HPLC; type: ADME, organism-based; design: dose 1.2 mg/kg; conditions: human, in vivo
[43] = system: Candida albicans; assay: Antifungal activity against Candida albicans FP633 collected from peak serum sample on day 43 from patient with myelodysplastic syndrome at 1.4 mg/kg by disk diffusion method in presence of human serum; type: functional
[44] = system: Candida albicans; assay: Antifungal activity against Candida albicans FP633 collected from peak serum sample on day 17 from patient with acute lymphoblastic leukemia at 1.2 mg/kg by disk diffusion method; type: functional
[45] = Ratio of MIC for Candida albicans FP633 collected from peak serum sample on day 8 from patient with acute myeloid leukemia at 1.1 mg/kg to Cmax for patient with acute myeloid leukemia at 1.1 mg/kg; type: functional
[46] = system: Candida albicans; assay: Antifungal activity against Candida albicans FP633 collected from peak serum sample on day 12 patient with malignant lymphoma at 2.6 mg/kg by disk diffusion method; type: functional
[47] = Ratio of MIC for Candida albicans FP633 collected from peak serum sample on day 17 from patient with acute lymphoblastic leukemia at 1.2 mg/kg in presence of human serum to Cmax for patient with acute lymphoblastic leukemia at 1.2 mg/kg; type: functional
[48] = Ratio of MIC for Candida albicans FP633 collected from peak serum sample on day 43 from patient with malignant lymphoma at 4.8 mg/kg in presence of human serum to Cmax for patient with malignant lymphoma at 4.8 mg/kg; type: functional
[49] = Ratio of MIC for Candida albicans FP633 collected from peak serum sample on day 12 from patient with malignant lymphoma at 2.6 mg/kg to Cmax for patient with malignant lymphoma at 2.6 mg/kg; type: functional
[50] = Cmax in patient with malignant lymphoma infected with Candida albicans FP633 at 5.8 mg/kg administered once daily after 8 days by HPLC; type: ADME, organism-based; design: dose 5.8 mg/kg; conditions: human, in vivo
[51] = Cmax in patient with acute myeloid leukemia infected with Candida albicans FP633 at 1.1 mg/kg administered once daily after 15 days by HPLC; type: ADME, organism-based; design: dose 1.1 mg/kg; conditions: human, in vivo

Work on `CCCCCOc1ccc(-c2cc(-c3ccc(C(=O)N[C@H]4C[C@@H](O)[C@@H](O)NC(=O)[C@@H]5[C@@H](O)[C@@H](C)CN5C(=O)[C@H]([C@H](O)CC(N)=O)NC(=O)[C@H]([C@H](O)[C@@H](O)c5ccc(O)c(OS(=O)(=O)O)c5)NC(=O)[C@@H]5C[C@@H](O)CN5C(=O)[C@H]([C@@H](C)O)NC4=O)cc3)no2)cc1` [MICAFUNGIN] (X1-[Orn(4R-OH,5R-OH)]T[Hyp][hTyr(3S-OH,4S-OH,3'-OSO3H)][Gln(3R-OH)][Pro(3S-OH,4S-Me)]; lactam 1-C) yielded an Activity [1] of 7 µg/mL, a Ratio [2] of 52 and a Cmax [3] of 8400 ng/mL. For the same compound, the Ratio [4] was 42, the Activity [5] was 22.1 µg/mL and the MIC [6] was 1 µg/mL. For the same compound, the Activity [7] was 1 µg/mL, the Activity [8] was 2.5 µg/mL and the Ratio [9] was 71. It also gave an Activity [10] of 0.9 µg/mL, a Cmax [11] of 16400 ng/mL and a Ratio [12] of 63. For the same compound, the Ratio [13] was 44, the Ratio [14] was 38 and the PB [15] was 99.8%. It also gave an Activity [16] of 3.8 µg/mL, a Ratio [17] of 109 and a Cmax [18] of 34200 ng/mL. For the same compound, the Ratio [19] was 92, the Activity [20] was 34.8 µg/mL and the Activity [21] was 8.1 µg/mL. It also gave a Ratio [22] of 38, an Activity [23] of 2.1 µg/mL and a Cmax [24] of 6400 ng/mL. For the same compound, the Ratio [25] was 135, the Activity [26] was 3.3 µg/mL and the Activity [27] was 14.1 µg/mL. The Activity [28] was 1.1 µg/mL, the Ratio [29] was 96 and the Ratio [30] was 32. For the same compound, the Cmax [31] was 6700 ng/mL, the Activity [32] was 5.2 µg/mL and the Ratio [33] was 78. The Cmax [34] was 37100 ng/mL, the Ratio [35] was 58 and the Ratio [36] was 45. It also gave an Activity [37] of 5.9 µg/mL, an Activity [38] of 1.6 µg/mL and a Ratio [39] of 40. It also gave an Activity [40] of 2.5 µg/mL, an Activity [41] of 1.7 µg/mL and a Cmax [42] of 6500 ng/mL. The Activity [43] was 4.2 µg/mL, the Activity [44] was 2.9 µg/mL and the Ratio [45] was 42. It also gave an Activity [46] of 6 µg/mL, a Ratio [47] of 91 and a Ratio [48] of 94. For the same compound, the Ratio [49] was 37, the Cmax [50] was 33600 ng/mL and the Cmax [51] was 5600 ng/mL.
